Consider 1 molecule from paper PMC4886280 (The Journal of General Physiology, 2016).

This experiment deals with T1, P2X7 (Homo sapiens, UniProt Q99572).
T1 sequence (Q99572 1-595): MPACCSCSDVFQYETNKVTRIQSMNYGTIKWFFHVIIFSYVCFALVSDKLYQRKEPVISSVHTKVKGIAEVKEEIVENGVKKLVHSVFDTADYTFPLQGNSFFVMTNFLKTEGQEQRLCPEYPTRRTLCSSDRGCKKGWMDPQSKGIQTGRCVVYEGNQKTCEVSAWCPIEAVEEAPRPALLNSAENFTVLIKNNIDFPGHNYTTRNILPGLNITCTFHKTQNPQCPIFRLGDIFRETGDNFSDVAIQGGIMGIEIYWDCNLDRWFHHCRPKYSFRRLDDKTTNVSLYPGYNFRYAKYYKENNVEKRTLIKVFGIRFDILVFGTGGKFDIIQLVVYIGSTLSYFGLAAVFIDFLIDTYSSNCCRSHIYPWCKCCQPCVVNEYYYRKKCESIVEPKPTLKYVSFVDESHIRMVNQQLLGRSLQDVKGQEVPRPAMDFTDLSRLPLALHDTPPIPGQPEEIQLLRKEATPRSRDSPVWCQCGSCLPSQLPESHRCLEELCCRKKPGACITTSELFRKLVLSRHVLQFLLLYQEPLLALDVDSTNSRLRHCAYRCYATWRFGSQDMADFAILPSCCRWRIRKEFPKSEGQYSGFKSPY
The experiment can be described thus: whole-cell patch clamp, ATP concentration-response in low-DIC bath. It is filed as cell-based.

For the molecule `Nc1ncnc2c1ncn2[C@@H]1O[C@H](COP(=O)(O)OP(=O)(O)OP(=O)(O)O)[C@@H](O)[C@H]1O` [ATP], a half-maximal response (EC50) required 339 ± 27 µM.
